According to ChEMBL document CHEMBL5137022, “Antitumor Activity of Rutaecarpine in Human Colorectal Cancer Cells by Suppression of Wnt/β-Catenin Signaling” (J Nat Prod, 2022):
Calls of active or inactive are those of the source. The rule behind the calls is not given here.

What was measured:
LS174T [1] = test: Downregulation of survivin expression in human LS174T cells at 2.5 to 20 uM incubated for 24 hrs by Western blot analysis; assay type: functional, cell-based; details: dose 2.5-20 µM
LS174T [2] = test: Induction of cell cycle arrest in human LS174T cells assessed as accumulation of cells at G2/M phase at 20 uM measured at 24 hrs by RNase A/propidium iodide staining based flow cytometric analysis (reference value: 12.9 %); assay type: functional
LS174T [3] = test: Antitumor activity against human LS174T cells xenografted in BALB/c nude mouse assessed as reduction in tumor weight at 30 mg/kg, ip administered 3 times per week for 21 days by electronic caliper method; assay type: functional; parameters: scale not given: the % may be the effect or the level left; details: time 21 day
LS174T [4] = test: Induction of cell cycle arrest in human LS174T cells assessed as accumulation of cells at G0/G1 phase at 20 uM measured at 12 hrs by RNase A/propidium iodide staining based flow cytometric analysis (reference value: 74.8 %); assay type: functional
Mus musculus [5] = test: Downregulation of MMP-7 expression in tumor of BALB/c mouse xenografted with human LS174T cells at 10 to 30 mg/kg, ip administered 3 times per week for 21 days by Western blot analysis; assay type: functional, organism-based; details: dose 10-30 mg/kg, time 21.0 day
LS174T [6] = test: Induction of cell cycle arrest in human LS174T cells assessed as accumulation of cells at G0/G1 phase at 20 uM measured after 24 hrs by RNase A/propidium iodide staining based flow cytometric analysis (reference value: 71.7 %); assay type: functional
LS174T [7] = test: Induction of apoptosis in human LS174T cells assessed as upregulation of cleaved caspase-9 expression measured after 48 hrs by Western blot analysis; assay type: functional, cell-based; details: dose 20-40 µM, DDE = dose-dependent effect
LS174T [8] = test: Downregulation of beta-catenin expression in human LS174T cells at 2.5 to 20 uM incubated for 24 hrs by Western blot analysis; assay type: functional, cell-based; details: dose 2.5-20 µM
LS174T [9] = test: Inhibition of cell migration in human LS174T cells assessed as reduction in wound closure incubated for 24 hrs by wound healing assay; assay type: functional, cell-based; details: dose 2-8 µM, DDE = dose-dependent effect
LS174T [10] = test: Induction of cell cycle arrest in human LS174T cells assessed as accumulation of cells at G2/M phase at 10 uM measured after 24 hrs by RNase A/propidium iodide staining based flow cytometric analysis (reference value: 12.2 %); assay type: functional
LS174T [11] = test: Induction of cell cycle arrest in human LS174T cells assessed as accumulation of cells at S phase at 20 uM measured at 24 hrs by RNase A/propidium iodide staining based flow cytometric analysis (reference value: 11.4 %); assay type: functional
[12] = Toxicity in BALB/c nude mouse xenografted with human LS174T cells assessed as effect on body weight at 10 to 30 mg/kg, ip administered 3 times per week for 21 days; assay type: organism-based; details: in vivo, 504 h, dose 10-30 mg/kg, time 21 day
LS174T [13] = test: Induction of apoptosis in human LS174T cells assessed as total cell death at 20 uM measured after 48 hrs by AnnexinV-FITC/PI staining based flowcytometry analysis relative to control; assay type: functional
LS174T [14] = test: Induction of apoptosis in human LS174T cells assessed as upregulation of cleaved caspase-3 expression measured after 48 hrs by Western blot analysis; assay type: functional, cell-based; details: dose 20-40 µM, DDE = dose-dependent effect
LS174T [15] = test: Downregulation of snail expression in human LS174T cells at up to 8 uM incubated for 24 hrs by Western blot analysis; assay type: functional, cell-based
LS174T [16] = test: Induction of cell cycle arrest in human LS174T cells assessed as accumulation of cells at G2/M phase at 5 uM measured after 24 hrs by RNase A/propidium iodide staining based flow cytometric analysis (reference value: 12.2 %); assay type: functional
LS174T [17] = test: Induction of cell cycle arrest in human LS174T cells assessed as accumulation of cells at S phase at 20 uM measured at 36 hrs by RNase A/propidium iodide staining based flow cytometric analysis (reference value: 11.4 %); assay type: functional
LS174T [18] = test: Induction of apoptosis in human LS174T cells assessed as total cell death at 30 uM measured after 48 hrs by AnnexinV-FITC/PI staining based flowcytometry analysis relative to control; assay type: functional
HCT-15 = test: Antiproliferative activity against human HCT-15 cells harboring wild type beta-catenin assessed as reduction in cell viability measured after 72 hrs by SRB assay; assay type: functional, cell-based; details: HCT-15, 72 h
LS174T [19] = test: Induction of cell cycle arrest in human LS174T cells assessed as accumulation of cells at G0/G1 phase at 5 uM measured after 24 hrs by RNase A/propidium iodide staining based flow cytometric analysis (reference value: 71.7 %); assay type: functional
Mus musculus [20] = test: Downregulation of c-Myc expression in tumor of BALB/c mouse xenografted with human LS174T cells at 10 to 30 mg/kg, ip administered 3 times per week for 21 days by immunohistochemical based analysis; assay type: functional, organism-based; details: dose 10-30 mg/kg, time 21.0 day
LS174T [21] = test: Induction of cell cycle arrest in human LS174T cells assessed as downregulation of CDK6 expression measured after 24 hrs by Western blot analysis; assay type: functional, cell-based; details: dose 5-20 µM, DDE = dose-dependent effect
HCT-116 = test: Antiproliferative activity against human HCT-116 cells harboring beta-catenin mutant assessed as reduction in cell viability measured after 72 hrs by SRB assay; assay type: functional, cell-based; details: HCT-116, 72 h
LS174T [22] = test: Antitumor activity against human LS174T cells xenografted in BALB/c nude mouse assessed as reduction in tumor volume at 10 mg/kg, ip administered 3 times per week for 21 days by electronic caliper method; assay type: functional; parameters: scale not given: the % may be the effect or the level left; details: time 21 day
Mus musculus [23] = test: Downregulation of N-cadherin expression in tumor of BALB/c mouse xenografted with human LS174T cells at 10 to 30 mg/kg, ip administered 3 times per week for 21 days by Western blot analysis; assay type: functional, organism-based; details: dose 10-30 mg/kg, time 21.0 day
LS174T [24] = test: Induction of cell cycle arrest in human LS174T cells assessed as downregulation of CDK4 expression measured after 24 hrs by Western blot analysis; assay type: functional, cell-based; details: dose 5-20 µM, DDE = dose-dependent effect
LS174T [25] = test: Antitumor activity against human LS174T cells xenografted in BALB/c nude mouse assessed as reduction in tumor volume at 30 mg/kg, ip administered 3 times per week for 21 days by electronic caliper method; assay type: functional; parameters: scale not given: the % may be the effect or the level left; details: time 21 day
LS174T [26] = test: Antiproliferative activity against human LS174T cells harboring beta-catenin mutant assessed as reduction in cell viability measured after 72 hrs by SRB assay; assay type: functional, cell-based
Mus musculus [27] = test: Downregulation of cyclin D1 expression in tumor of BALB/c mouse xenografted with human LS174T cells at 10 to 30 mg/kg, ip administered 3 times per week for 21 days by immunohistochemical based analysis; assay type: functional, organism-based; details: dose 10-30 mg/kg, time 21.0 day
LS174T [28] = test: Induction of cell cycle arrest in human LS174T cells assessed as accumulation of cells at sub-G1 phase at 5 uM measured after 24 hrs by RNase A/propidium iodide staining based flow cytometric analysis (reference value: 1.3 %); assay type: functional
LS174T [29] = test: Induction of cell cycle arrest in human LS174T cells assessed as accumulation of cells at S phase at 5 uM measured after 24 hrs by RNase A/propidium iodide staining based flow cytometric analysis (reference value: 14.5 %); assay type: functional
LS174T [30] = test: Induction of apoptosis in human LS174T cells assessed as total cell death at 40 uM measured after 48 hrs by AnnexinV-FITC/PI staining based flowcytometry analysis relative to control; assay type: functional
LS174T [31] = test: Induction of apoptosis in human LS174T cells assessed as increase in late apoptotic cells at 20 to 40 uM measured after 48 hrs by AnnexinV-FITC/PI staining based flowcytometry analysis; assay type: functional, cell-based; details: dose 20-40 µM

## O=c1c2ccccc2nc2n1CCc1c-2[nH]c2ccccc12 [RUTAECARPINE]
LS174T [1]
  Activity: Active
LS174T [2]
  Activity: 5.6%
LS174T [3]
  Activity: 41.5%
LS174T [4]
  Activity: 80.3%
Mus musculus [5]
  Activity: Active
LS174T [6]
  Activity: 87.3%
LS174T [7]
  Activity: Dde
LS174T [8]
  Activity: Active
LS174T [9]
  inhibition: Dde
LS174T [10]
  Activity: 9.6%
LS174T [11]
  Activity: 2.2%
[12]
  Activity: Non-Toxic
LS174T [13]
  Activity: 24.7%
LS174T [14]
  Activity: Dde
LS174T [15]
  Activity: Active
LS174T [16]
  Activity: 11.8%
LS174T [17]
  Activity: 2.1%
LS174T [18]
  Activity: 65.7%
HCT-15
  IC50: > 50 µM
LS174T [19]
  Activity: 75.8%
Mus musculus [20]
  Activity: Active
LS174T [21]
  Activity: Dde
HCT-116
  IC50: 31.1 µM
LS174T [22]
  Activity: 25.9%
Mus musculus [23]
  Activity: Active
LS174T [24]
  Activity: Dde
LS174T [25]
  Activity: 54.6%
LS174T [26]
  IC50: 6.1 µM
Mus musculus [27]
  Activity: Active
LS174T [28]
  Activity: 1.4%
LS174T [29]
  Activity: 10.7%
LS174T [30]
  Activity: 85.4%
LS174T [31]
  Activity: Active
